Usually IC50 stands for the concentration that inhibits the measured activity by half.

The target of the assay is T1, wild-type HIV-1 protease (Human immunodeficiency virus type 1 group M subtype B, UniProt P04585).
T1 construct: Escherichia coli expressed wild-type HIV-1 protease protein
The experiment in a line: Assay for Inhibition of Microbial Expressed HIV Protease (peptide substrate cleavage, LC-MS/MS readout). In kind it is biochemical. The following applies: E. coli expressed wild-type HIV-1 protease, mean of at least two independent experiments, read-out: HIV Pr Enzyme HIV1 PR IC50. Put shortly:
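E. coli-expressed wild-type HIV-1 protease ([…]) was preincubated with inhibitor 30 min at room temperature in pH 5.5 acetate buffer (100 mM NaCl, 0.1% BSA). Then 400 μM octapeptide substrate was added and reacted 1 h at 30 °C; inhibition came from LC-MS/MS product peak areas, mean of ≥2 experiments.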
Take `N=C1N[C@](CCCC(F)(F)F)(c2ccc(F)cc2)C(=O)N1Cc1ccc(C(F)(F)F)c(C(=O)N2Cc3cnc(-c4ccc(-n5cccn5)nc4)nc3C2)c1` [Compound 89, (5R)-5-(4-fluorophenyl)-2-imino-3-[3-({2-[6-(1H-pyrazol-1-yl)pyridin-3-yl]-5,7-dihydro-6H-pyrrolo[3,4-d]pyrimidin-6-yl}carbonyl)-4-(trifluoromethyl)benzyl]-5-(4,4,4-trifluorobutyl)imidazolidin-4-one]: the IC50 was found to be 15.7 nM. Next, `CC(C)CC1(c2ccccc2)NC(=N)N(Cc2ccc(Cl)c(C(=O)N3Cc4cnc(C#N)nc4C3)c2)C1=O` (stereo not drawn) [Compound 364, 6-[(2-chloro-5-{[2-imino-4-(2-methylpropyl)-5-oxo-4-phenylimidazolidin-1-yl]methyl}phenyl)carbonyl]-6,7-dihydro-5H-pyrrolo[3,4-d]pyrimidine-2-carbonitrile]: 4.17 nM; `N=C1N[C@](CCCC(F)(F)F)(c2ccc(F)cc2)C(=O)N1Cc1ccc(C(F)(F)F)c(C(=O)N2Cc3cnc(-c4ccc(-n5nccn5)cc4)nc3C2)c1` [Compound 117, (5R)-5-(4-fluorophenyl)-2-imino-3-[3-({2-[4-(2H-1,2,3-triazol-2-yl)phenyl]-5,7-dihydro-6H-pyrrolo[3,4-d]pyrimidin-6-yl}carbonyl)-4-(trifluoromethyl)-benzyl]-5-(4,4,4-trifluorobutyl)-imidazolidin-4-one]: 38.5 nM. Under `N=C1N[C@](CCCC(F)(F)F)(c2ccc(F)cc2)C(=O)N1Cc1ccc(C(F)(F)F)c(C(=O)N2CCN(c3cccnc3)CC2)c1` [Compound 108, (5R)-5-(4-fluorophenyl)-2-imino-3-{3-[(4-pyridin-3-ylpiperazin-1-yl)carbonyl]-4-(trifluoromethyl)-benzyl}-5-(4,4,4-trifluorobutyl)-imidazolidin-4-one] stands 26.1 nM.

As for `CC(C)C[C@]1(c2ccccc2)NC(=N)N([C@H](C)c2cccc(C(=O)N3Cc4cncnc4C3)c2)C1=O` [Compound 261, 3-{(1R)-1-[3-(5,7-dihydro-6H-pyrrolo[3,4-d]pyrimidin-6-ylcarbonyl)phenyl]ethyl}-2-imino-5-(2-methylpropyl)-5-phenylimidazolidin-4-one], the half-maximal inhibitory concentration (IC50) worked out at 23.5 nM. Next, `COC(=O)Nc1ncc2c(n1)CN(C(=O)c1ccc3c(c1)[C@H](N1C(=N)N[C@](CCC(C)C)(c4ccccc4)C1=O)CC3)C2` [Compound 96, methyl [6-({(3R)-3-[(4R)-2-imino-4-(3-methylbutyl)-5-oxo-4-phenylimidazolidin-1-yl]-2,3-dihydro-1H-inden-5-yl}carbonyl)-6,7-dihydro-5H-pyrrolo[3,4-d]pyrimidin-2-yl]carbamate]: 20.4 nM; `N=C1NC(c2ccc(F)cc2)(c2cccc(Br)c2)C(=O)N1Cc1cccc(C(=O)N2Cc3ccccc3C2)c1` (stereo not drawn) [Compound 289, 5-(3-bromophenyl)-3-[3-(1,3-dihydro-2H-isoindol-2-ylcarbonyl)benzyl]-5-(4-fluorophenyl)-2-iminoimidazolidin-4-one]: 36.1 nM. Under `CN(C)C(=O)c1cccc(C2(c3ccc(F)cc3)NC(=N)N(Cc3cccc(C(=O)N4Cc5ccccc5C4)c3)C2=O)c1` (stereo not drawn) [Compound 306, 3-{1-[3-(1,3-dihydro-2H-isoindol-2-ylcarbonyl)benzyl]-4-(4-fluorophenyl)-2-imino-5-oxoimidazolidin-4-yl}-N,N-dimethylbenzamide] stands 47.4 nM; under `N=C1NC(c2ccc(F)cc2)(c2ccc(F)cc2)C(=O)N1Cc1ccc(C(F)(F)F)c(C(=O)N2CCCC2)c1` [Compound 180, 5,5-bis(4-fluorophenyl)-2-imino-3-[3-(pyrrolidin-1-ylcarbonyl)-4-(trifluoromethyl)benzyl] imidazolidin-4-one], 78.8 nM; under `N=C1NC(c2ccccc2)(c2ccc(-c3ccccc3)cc2)C(=O)N1Cc1cccc(C(=O)N2Cc3ccccc3C2)c1` (stereo not drawn) [Compound 273, 5-biphenyl-4-yl-3-[3-(1,3-dihydro-2H-isoindol-2-ylcarbonyl)benzyl]-2-imino-5-phenylimidazolidin-4-one], 28.5 nM. Next, `N=C1NC(c2ccc(F)cc2)(c2ccccn2)C(=O)N1Cc1cccc(C(=O)N2Cc3ccccc3C2)c1` (stereo not drawn) [Compound 256, 3-[3-(1,3-dihydro-2H-isoindol-2-ylcarbonyl)benzyl]-5-(4-fluorophenyl)-2-imino-5-pyridin-2-ylimidazolidin-4-one]: 21.1 nM; `N=C1N[C@](CCCC(F)(F)F)(c2ccc(F)cc2)C(=O)N1Cc1ccc(C(F)(F)F)c(C(=O)N2Cc3cnc(-c4cc(F)cc(F)c4)nc3C2)c1` [Compound 121, (5R)-3-[3-{[2-(3,5-difluorophenyl)-5,7-dihydro-6H-pyrrolo[3,4-d]pyrimidin-6-yl]carbonyl}-4-(trifluoromethyl)benzyl]-5-(4-fluorophenyl)-2-imino-5-(4,4,4-trifluorobutyl)imidazolidin-4-one]: 44.3 nM; `CC(C)CC[C@]1(c2ccccc2)NC(=N)N(Cc2cc(F)cc(C(=O)N3Cc4nccnc4C3)c2)C1=O` [Compound 207, (5R)-3-[3-(5,7-dihydro-6H-pyrrolo[3,4-b]pyrazin-6-ylcarbonyl)-5-fluorobenzyl]-2-imino-5-(3-methylbutyl)-5-phenylimidazolidin-4-one]: 8.35 nM. Turning to `N=C1N[C@](CCCC(F)(F)F)(c2ccc(F)cc2)C(=O)N1Cc1ccc(C(F)(F)F)c(C(=O)N2Cc3cnc(-c4cnn5c4CCC5)nc3C2)c1` [Compound 34, (5R)-3-[3-{[2-(5,6-dihydro-4H-pyrrolo[1,2-b]pyrazol-3-yl)-5,7-dihydro-6H-pyrrolo[3,4-d]pyrimidin-6-yl]carbonyl}-4-(trifluoromethyl)benzyl]-5-(4-fluorophenyl)-2-imino-5-(4,4,4-trifluorobutyl)imidazolidin-4-one], the IC50 came out at 3.36 nM. Regarding `N=C1NC(c2ccccc2)(c2ccccc2)C(=O)N1Cc1cccc(C(=O)N2Cc3nccnc3C2)c1` [Compound 219, 3-[3-(5,7-dihydro-6H-pyrrolo[3,4-b]pyrazin-6-ylcarbonyl)benzyl]-2-imino-5,5-diphenylimidazolidin-4-one], the IC50 worked out at 11 nM. Next, `N=C1N[C@](CCCC(F)(F)F)(c2ccc(F)cc2)C(=O)N1Cc1ccc(C(F)(F)F)c(C(=O)N2Cc3cnc(-c4cnc(-n5cccn5)nc4)nc3C2)c1` [Compound 69, (5R)-5-(4-fluorophenyl)-2-imino-3-[3-({2-[2-(1H-pyrazol-1-yl)pyrimidin-5-yl]-5,7-dihydro-6H-pyrrolo[3,4-d]pyrimidin-6-yl}carbonyl)-4-(trifluoromethyl)benzyl]-5-(4,4,4-trifluorobutyl)imidazolidin-4-one]: 8.8 nM. Under `N=C1NC(c2ccc(F)cc2)(c2ccc(F)cc2)C(=O)N1Cc1ccc(C(F)(F)F)c(C(=O)N2CCC(F)(F)C2)c1` [Compound 172, 3-{3-[(3,3-difluoropyrrolidin-1-yl)carbonyl]-4-(trifluoromethyl)-benzyl}-5,5-bis(4-fluorophenyl)-2-iminoimidazolidin-4-one] stands 53.3 nM.

With `Cn1cc(-c2ncc3c(n2)CN(C(=O)c2cc(CN4C(=N)N[C@](CCCC(F)(F)F)(c5ccc(F)cc5)C4=O)ccc2C(F)(F)F)C3)cn1` [Compound 15, (5R)-5-(4-fluorophenyl)-2-imino-3-[3-{[2-(1-methyl-1H-pyrazol-4-yl)-5,7-dihydro-6H-pyrrolo[3,4-d]pyrimidin-6-yl]carbonyl}-4-(trifluoromethyl)benzyl]-5-(4,4,4-trifluorobutyl)imidazolidin-4-one], the IC50 was determined as 1.95 nM. Under `C[C@H](c1cccc(C(=O)N2Cc3nccnc3C2)c1)N1C(=N)NC(c2ccc(F)cc2)(c2ccc(F)cc2)C1=O` [Compound 186, 3-{(1R)-1-[3-(5,7-dihydro-6H-pyrrolo[3,4-b]pyrazin-6-ylcarbonyl)phenyl]ethyl}-5,5-bis(4-fluorophenyl)-2-iminoimidazolidin-4-one] stands 3.24 nM. Next, `N=C1NC(c2ccccc2)(c2ccccc2)C(=O)N1Cc1cccc(C(=O)N2CCN(c3ncccn3)CC2)c1` [Compound 230, 2-imino-5,5-diphenyl-3-{3-[(4-pyrimidin-2-ylpiperazin-1-yl)carbonyl]benzyl} imidazolidin-4-one]: 13.1 nM; `N=C1NC(CCC2CC2)(c2cccc(F)c2)C(=O)N1Cc1ccc(C(F)(F)F)c(C(=O)N2Cc3nccnc3C2)c1` (stereo not drawn) [Compound 26, 5-(2-cyclopropylethyl)-3-[3-(5,7-dihydro-6H-pyrrolo[3,4-b]pyrazin-6-ylcarbonyl)-4-(trifluoromethyl)benzyl]-5-(3-fluorophenyl)-2-iminoimidazolidin-4-one]: 2.85 nM; `N=C1N[C@](CCCC(F)(F)F)(c2ccc(F)cc2)C(=O)N1Cc1ccc(C(F)(F)F)c(C(=O)N2CCN3c4ccccc4CC3C2)c1` (stereo partly drawn) [Compound 132, (5R)-5-(4-fluorophenyl)-2-imino-3-[3-(3,4,10,10a-tetrahydropyrazino-[1,2-a]indol-2(1H)-ylcarbonyl)-4-(trifluoromethyl)benzyl]-5-(4,4,4-trifluorobutyl)imidazolidin-4-one]: 86.6 nM.

Regarding `N=C1NC(c2ccc(F)cc2)(c2ccc(F)cc2)C(=O)N1Cc1cccc(C(=O)N2CCN(c3ncccn3)CC2)c1` [Compound 280, 5,5-bis(4-fluorophenyl)-2-imino-3-{3-[(4-pyrimidin-2-ylpiperazin-1-yl)carbonyl]benzyl} imidazolidin-4-one], the IC50 is 31 nM. Next, `CSc1nnc2n1CCN(C(=O)c1cccc(CN3C(=N)NC(c4ccccc4)(c4ccccc4)C3=O)c1)C2` [Compound 246, 2-imino-3-(3-{[3-(methylsulfanyl)-5,6-dihydro[1,2,4]triazolo[4,3-a]pyrazin-7(8H)-yl]carbonyl}benzyl)-5,5-diphenylimidazolidin-4-one]: 17.5 nM.
